From patent US6965051B2, “Process for resolution of tamsulosin and compounds, compositions, and processes associated therewith” (Synthon IP Inc., priority 2001, dated 2005)

Assays:
[1] = Solubility of solid state racemic tamsulosin free base precipitates (qualitative); assay type: physicochemical; settings: relatively pure precipitate
Text: The typical starting tamsulosin substrate, namely racemic tamsulosin free base in solid state, is not formed in the prior art per se. The present invention is based in part on the discovery that the racemic free base can be formed and isolated in the solid state. Preferably the solid state form is a precipitate from a solution. More preferably, the solid state form is a crystalline form. The crystalline form includes all polymorphic modifications, unless otherwise noted and includes hydrates and solvates thereof. In particular, two polymorphic forms of solid state racemic tamsulosin free base, designated as Form 1 and Form 2, have now been discovered as part of the present invention and are described hereinafter. The solid state racemic free base can be isolated in high purity, including at least 80% purity, more preferably at least 90% purity, still more preferably at least 95% purity.

[2] = Water solubility of amine (5) observed during alkaline extraction; assay type: physicochemical; settings: free base, normal alkaline extraction gave too high a loss
Text: It has now been discovered that the so obtained free base of (5) is contaminated by side-products and should be purified for the next step. […] It has been discovered that an effective way to purify the amine is to form a sulfonic acid salt of the amine, especially methane sulfonate or tosylate. The salt, particularly the methane sulfonate salt of (5), may be isolated in solid, preferably crystalline state by conventional methods and may be used as an advantageous substrate in the next reaction step. The conversion of the free base of (5) into an acid addition salt and isolation of the salt in solid state enhances the purity of the compound (5), particularly it removes side products that resulted from hydrogenation such as 2-ethoxyphenyl. The 2-(o-ethoxyphenoxy)ethylamine methane sulfonate thus forms a specific aspect of this invention.

## CCOc1ccccc1OCCNC(C)Cc1ccc(OC)c(S(N)(=O)=O)c1 (racemic) [racemic tamsulosin free base, (R,S)-5-[2-[[2-(2-ethoxyphenoxy)ethyl]amino]propyl]-2-methoxybenzene-sulfonamide]
[1]; alcohols such as methanol and ethanol
  solubility in alcohols: soluble
[1]; chlorinated hydrocarbons
  solubility in chlorinated hydrocarbons: soluble
[1]; water
  solubility in water: sparingly soluble

## CCOc1ccccc1OCCN [amine (5), 2-(o-ethoxyphenoxy)ethylamine]
[2]
  water solubility: unexpectedly high
